According to EP4588921A1, “FREE BASE CRYSTAL FORM OF POLYCYCLIC COMPOUND OF NITROGEN-CONTAINING HETEROCYCLE, AND PREPARATION METHOD THEREFOR” (Jiangsu Hansoh Pharmaceutical Group Co., Ltd., priority 2022, dated 2024):
≈ marks a conversion by molar mass, not a printed value. Like-named read-outs stand apart in the source and are kept apart here.

Key:
[1] = Solid stability experiment (related substances by HPLC); format: physicochemical
Procedure: The compound physical and chemical stability at high temperature of 60°C, high humidity of 92.5% RH and both high temperature of 50°C and high humidity of 75% RH of the free base crystal form I and the free base crystal form II were investigated to provide a basis for the storage of the compounds.
About 2 mg of the free base crystal form I and the free base crystal form II were taken respectively, and changes of related substances in the crystal forms at high temperature of 60°C, high humidity of 92.5% RH, and both high temperature of 50°C and high humidity of 75%RH for 7 days and 14 days were investigated. The changes of related substances were calculated by HPLC and the chromatographic peak area normalization method.

[2] = Hygroscopicity experiment; format: physicochemical; conditions: at 80%RH
Procedure: The hygroscopicity of the crystal form I and the crystal form II of compound 9 were investigated under different relative humidity to provide a basis for the storage of the compounds.
The crystal form I and the crystal form II of compound 9 were placed in saturated water vapor at different relative humidities to allow the compound to reach a dynamic equilibrium with the water vapor, and the percentage of weight gain after moisture absorption of the compound after equilibrium was calculated.

[3] = Solubility experiments in different media (thermodynamic solubility); format: physicochemical; conditions: thermodynamic from solid
From the text: The solubility of the free base crystal form I and the free base crystal form II in media such as pH 1.0-8.0 USP buffer, artificial simulated gastric fluid (FaSSGF), fasted-state artificial simulated intestinal fluid (FaSSIF), fed-state artificial simulated intestinal fluid (FeSSIF) and pure water was compared to provide a basis for the evaluation of drugability.

[4] = PK studies in animals of the free base crystal forms; format: in vivo; conditions: Sprague-Dawley (SD), rat, 30 mg/kg, 30MPK, 0.5%HPMC suspension, SD rats, plasma
Procedure: The pharmacokinetic of the free base crystal form after a single intravenous administration was studied, and the bioavailability of the free base crystal form I and the free base crystal form II after oral administration were calculated.
The free base crystal form I was suspended with 0.5% CMCC-Na aqueous solution, and the free base crystal form […] aqueous solution. After uniformity, the suspensions were administered intragastrically to rats in triplicate at a dosage of 5 mg/kg (30 mg/kg for suspension) for the free base crystal form I and a dosage of 30 mg/kg (suspension) for the free base crystal form II. The free base crystal form I was dissolved with 20% HP-β-CD aqueous solution to obtain a clear solution, and the clear solution was filtered through a filter membrane. The filtered solution was administered via injection to rats in triplicate.

[5] = Room temperature, 92.5%RH, 7 days
[6] = Room temperature, 92.5%RH, 14 days

% Increase in total impurity ([1]; 50°C, 75%RH, 7 days): <0.10% | % Maximum increase in single impurity ([1]; 50°C, 75%RH, 7 days): <0.10% | % Increase in total impurity ([1]; 50°C, 75%RH, 14 days): <0.10% | % Maximum increase in single impurity ([1]; 50°C, 75%RH, 14 days): <0.10% | % Increase in total impurity ([1]; 60°C, 7 days): <0.10% | % Maximum increase in single impurity ([1]; 60°C, 7 days): <0.10% | % Increase in total impurity ([1]; 60°C, 14 days): <0.10% | % Maximum increase in single impurity ([1]; 60°C, 14 days): <0.10% | % Increase in total impurity [1, 5]: <0.10% | % Maximum increase in single impurity [1, 5]: <0.10% | % Increase in total impurity [1, 6]: <0.11% | % Maximum increase in single impurity [1, 6]: <0.10% | weight gain after moisture absorption [2]: about 0.2053% | solubility at 2 h ([3]; FaSSCoF, 37 °C, fassgf or other biorelevant, FaSSCoF, read-out: Solubility of free base crystal form II): 51 µg/mL (≈ 109 µM) | solubility at 2 h ([3]; FaSSGF (artificial simulated gastric fluid), 37 °C, fassgf or other biorelevant, FaSSGF, read-out: Solubility of free base crystal form II): 131 µg/mL (≈ 281 µM) | solubility at 2 h ([3]; FaSSIF, 37 °C, fassif, FaSSIF, read-out: Solubility of free base crystal form II): 60 µg/mL (≈ 129 µM) | solubility at 2 h ([3]; FeSSCoF, 37 °C, fassgf or other biorelevant, FeSSCoF, read-out: Solubility of free base crystal form II): 63 µg/mL (≈ 135 µM) | solubility at 2 h ([3]; FeSSIF, 37 °C, fessif, FeSSIF, read-out: Solubility of free base crystal form II): 100 µg/mL (≈ 214 µM) | solubility at 2 h ([3]; USP buffer pH 1.0, 37 °C, pH 1, simulated gastric fluid, pH 1.0, read-out: Solubility of free base crystal form II): 599 µg/mL (≈ 1280 µM) | solubility at 2 h ([3]; USP buffer pH 2.0, 37 °C, pH 2, simulated gastric fluid, pH 2.0, read-out: Solubility of free base crystal form II): 89 µg/mL (≈ 191 µM) | solubility at 2 h ([3]; USP buffer pH 3.0, 37 °C, pH 3, aqueous buffer, pH 3.0, read-out: Solubility of free base crystal form II): 55 µg/mL (≈ 118 µM) | solubility at 2 h ([3]; USP buffer pH 4.5, 37 °C, pH 4.5, aqueous buffer, pH 4.5, read-out: Solubility of free base crystal form II): 53 µg/mL (≈ 114 µM) | solubility at 2 h ([3]; USP buffer pH 6.8, 37 °C, pH 6.8, aqueous buffer, pH 6.8, read-out: Solubility of free base crystal form II): 49 µg/mL (≈ 105 µM) | solubility at 2 h ([3]; USP buffer, 37 °C, pH 4, aqueous buffer, pH 4.0, read-out: Solubility of free base crystal form II): 51 µg/mL (≈ 109 µM) | solubility at 2 h ([3]; USP buffer, 37 °C, pH 5, aqueous buffer, pH 5.0, read-out: Solubility of free base crystal form II): 50 µg/mL (≈ 107 µM) | solubility at 2 h ([3]; USP buffer, 37 °C, pH 6, aqueous buffer, pH 6.0, read-out: Solubility of free base crystal form II): 50 µg/mL (≈ 107 µM) | solubility at 2 h ([3]; USP buffer, 37 °C, pH 7, aqueous buffer, pH 7.0, read-out: Solubility of free base crystal form II): 47 µg/mL (≈ 101 µM) | solubility at 2 h ([3]; USP buffer, 37 °C, pH 8, aqueous buffer, pH 8.0, read-out: Solubility of free base crystal form II): 47 µg/mL (≈ 101 µM) | solubility at 2 h ([3]; water, 37 °C, water, H2O, read-out: Solubility of free base crystal form II): 55 µg/mL (≈ 118 µM) | Tmax ([4]; PO, read-out: tmax): 2 h | AUC(0-inf) ([4]; po): 13600 ng·h/mL | AUC(0-t) ([4]; po): 11800 ng·h/mL | Cmax ([4]; po): 2520 ng/mL | bioavailability ([4]; po): 39.6% | half-life ([4]; po): 2.4 h | MRT inf ([4]; po, PO, read-out: MRT 0-∞): 4.3 h
SMILES: CC(C)(O)c1nc(N2C[C@H]3CN(C(=O)c4c(F)cccc4-c4ncccn4)C[C@H]3C2)ncc1F [free base crystal form II, ((3aR,6aS)-5-(5-fluoro-4-(2-hydroxyprop-2-yl)pyrimidin-2-yl)hexahydropyrrolo [3,4-c]pyrrol-2(1H)-yl)(2-fluoro-6-(pyrimidin-2-yl)phenyl)methanone]
